Among the data in publication PMC12399569, “Disruption of Spike Priming in Virus Entry: Tetrandrine as a Pan‐Coronavirus Inhibitor” (MedComm, 2025) are Kd values, retold here.

Each structure is given as a SMILES string.

Holding throughout (assay type): binding
One experiment addresses T1, HCoV-229E Spike (Human coronavirus 229E, UniProt P15423).
T1 construct: gene S
The experiment can be described thus: SPR (Reichert4, CM5 chip, Spike immobilised). The source says:
SPR (Reichert4, CM5 chip, Spike immobilised) on HCoV-229E Spike | we observed its interaction with the Spike proteins of various coronaviruses in vitro (Figure 5C)

The next experiment concerns the target T2, hTMPRSS2 (Homo sapiens, UniProt O15393).
T2 construct: gene TMPRSS2; purified protein; immobilised on CM5 chip
The experiment can be described thus: SPR (CM5 chip, hTMPRSS2 immobilised). The text has this:
SPR (CM5 chip, hTMPRSS2 immobilised) on hTMPRSS2 | Through SPR assay, we validated that tetrandrine could also bind to TMPRSS2

The target in a further experiment is T3, HCoV-OC43 Spike (Human coronavirus OC43, UniProt P36334).
T3 construct: gene S
T3 sequence (P36334 14-1353): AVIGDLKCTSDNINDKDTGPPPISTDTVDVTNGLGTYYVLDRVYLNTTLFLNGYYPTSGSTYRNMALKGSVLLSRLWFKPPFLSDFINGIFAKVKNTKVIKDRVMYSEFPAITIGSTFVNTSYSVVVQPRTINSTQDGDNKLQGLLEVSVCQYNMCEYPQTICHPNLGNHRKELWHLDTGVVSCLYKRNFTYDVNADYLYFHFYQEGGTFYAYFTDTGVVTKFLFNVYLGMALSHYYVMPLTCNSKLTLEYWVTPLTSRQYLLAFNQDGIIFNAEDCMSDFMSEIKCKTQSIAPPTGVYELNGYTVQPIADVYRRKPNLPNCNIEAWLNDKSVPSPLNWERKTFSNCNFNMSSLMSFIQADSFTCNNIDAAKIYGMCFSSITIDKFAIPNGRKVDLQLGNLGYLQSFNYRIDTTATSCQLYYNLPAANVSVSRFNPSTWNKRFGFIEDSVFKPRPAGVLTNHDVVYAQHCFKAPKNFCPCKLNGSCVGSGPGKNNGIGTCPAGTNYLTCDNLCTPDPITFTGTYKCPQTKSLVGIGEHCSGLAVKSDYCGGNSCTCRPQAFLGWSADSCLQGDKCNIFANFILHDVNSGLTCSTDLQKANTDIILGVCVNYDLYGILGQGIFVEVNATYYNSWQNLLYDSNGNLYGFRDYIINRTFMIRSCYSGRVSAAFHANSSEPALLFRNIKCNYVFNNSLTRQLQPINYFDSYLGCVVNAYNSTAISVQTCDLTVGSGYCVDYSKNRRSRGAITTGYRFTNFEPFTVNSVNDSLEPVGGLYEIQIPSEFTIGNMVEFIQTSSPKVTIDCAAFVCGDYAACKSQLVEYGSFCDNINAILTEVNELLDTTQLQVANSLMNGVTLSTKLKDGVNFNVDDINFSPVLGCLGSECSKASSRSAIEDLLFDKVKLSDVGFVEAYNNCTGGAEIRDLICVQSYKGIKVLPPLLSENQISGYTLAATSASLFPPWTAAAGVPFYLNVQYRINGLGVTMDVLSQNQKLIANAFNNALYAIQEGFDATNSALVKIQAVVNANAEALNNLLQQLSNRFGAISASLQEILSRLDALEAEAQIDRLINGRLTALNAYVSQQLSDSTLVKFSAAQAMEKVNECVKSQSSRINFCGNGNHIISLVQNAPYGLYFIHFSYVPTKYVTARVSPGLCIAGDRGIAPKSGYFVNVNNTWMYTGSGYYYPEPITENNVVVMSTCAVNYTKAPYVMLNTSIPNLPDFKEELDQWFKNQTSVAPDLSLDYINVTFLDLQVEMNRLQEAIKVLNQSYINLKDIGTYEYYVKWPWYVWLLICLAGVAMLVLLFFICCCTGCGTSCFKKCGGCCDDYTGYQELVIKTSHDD
The experiment can be described thus: SPR (Reichert4, CM5 chip, Spike immobilised). The source says: SPR (Reichert4, CM5 chip, Spike immobilised) on HCoV-OC43 Spike | we observed its interaction with the Spike proteins of various coronaviruses in vitro (Figure 5C)

T1 sequence (P15423 16-1173): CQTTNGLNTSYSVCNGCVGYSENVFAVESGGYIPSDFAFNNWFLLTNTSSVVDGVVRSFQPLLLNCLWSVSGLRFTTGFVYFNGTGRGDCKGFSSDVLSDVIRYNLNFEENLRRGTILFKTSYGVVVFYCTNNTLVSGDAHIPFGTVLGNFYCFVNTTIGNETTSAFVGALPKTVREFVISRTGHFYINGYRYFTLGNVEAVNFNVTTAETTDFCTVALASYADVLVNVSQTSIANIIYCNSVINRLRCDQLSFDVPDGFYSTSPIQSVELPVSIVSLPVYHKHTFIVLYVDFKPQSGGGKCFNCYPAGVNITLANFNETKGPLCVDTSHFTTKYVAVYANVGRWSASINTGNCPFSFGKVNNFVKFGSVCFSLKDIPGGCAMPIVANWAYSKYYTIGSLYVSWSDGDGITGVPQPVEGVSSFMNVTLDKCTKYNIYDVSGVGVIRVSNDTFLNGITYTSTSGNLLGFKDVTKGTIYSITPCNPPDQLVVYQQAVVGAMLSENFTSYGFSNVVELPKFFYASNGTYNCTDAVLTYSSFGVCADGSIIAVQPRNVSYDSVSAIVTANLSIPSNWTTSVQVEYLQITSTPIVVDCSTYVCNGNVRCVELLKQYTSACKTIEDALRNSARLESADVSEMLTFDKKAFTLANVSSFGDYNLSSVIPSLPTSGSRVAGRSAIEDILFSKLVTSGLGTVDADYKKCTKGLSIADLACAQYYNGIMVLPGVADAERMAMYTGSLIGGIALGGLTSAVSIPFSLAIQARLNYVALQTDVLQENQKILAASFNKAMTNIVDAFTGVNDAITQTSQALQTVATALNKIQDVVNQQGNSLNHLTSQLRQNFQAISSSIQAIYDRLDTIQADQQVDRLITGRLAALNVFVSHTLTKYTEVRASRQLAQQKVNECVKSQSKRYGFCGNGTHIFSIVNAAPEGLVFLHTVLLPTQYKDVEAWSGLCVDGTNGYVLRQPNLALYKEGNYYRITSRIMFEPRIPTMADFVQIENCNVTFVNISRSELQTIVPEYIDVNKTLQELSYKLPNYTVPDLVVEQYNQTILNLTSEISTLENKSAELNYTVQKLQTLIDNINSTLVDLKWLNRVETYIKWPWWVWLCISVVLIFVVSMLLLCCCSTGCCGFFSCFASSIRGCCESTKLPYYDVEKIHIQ
T2 sequence (O15393 whole entry): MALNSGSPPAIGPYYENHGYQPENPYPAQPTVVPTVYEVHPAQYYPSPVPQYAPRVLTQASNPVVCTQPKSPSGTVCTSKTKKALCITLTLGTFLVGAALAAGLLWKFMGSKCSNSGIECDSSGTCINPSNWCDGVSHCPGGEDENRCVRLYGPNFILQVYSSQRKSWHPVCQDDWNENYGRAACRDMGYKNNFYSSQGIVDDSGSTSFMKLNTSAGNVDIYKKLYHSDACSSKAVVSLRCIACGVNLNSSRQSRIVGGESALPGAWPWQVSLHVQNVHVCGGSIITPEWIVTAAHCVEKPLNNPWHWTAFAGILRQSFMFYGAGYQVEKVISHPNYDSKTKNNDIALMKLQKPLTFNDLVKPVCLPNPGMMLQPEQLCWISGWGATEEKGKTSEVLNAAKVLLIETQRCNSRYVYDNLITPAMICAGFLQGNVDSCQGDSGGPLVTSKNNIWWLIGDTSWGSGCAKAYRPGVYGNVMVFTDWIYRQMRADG

As for `COc1ccc2cc1Oc1ccc(cc1)C[C@H]1c3cc(c(OC)cc3CCN1C)Oc1c(OC)c(OC)cc3c1[C@H](C2)N(C)CC3` [tetrandrine], the Kd – broadly, the free concentration of one partner at which half of the binding sites on the other are occupied at equilibrium, for simple one-to-one binding – at HCoV-229E Spike was around 0.53 µM; on hTMPRSS2, 4.59 µM; at HCoV-OC43 Spike, around 21.3 µM.
